The values that follow come from patent US12466832B2, “Monohydrate and crystalline forms of 6-[(3S,4S)-4-methyl-1-(pyrimidin-2-ylmethyl)pyrrolidin-3-yl]-3-tetrahydropyran-4-yl-7H-imidazo[1,5-a]pyrazin-8-one” (Cardurion Pharmaceuticals, Inc., priority 2018, dated 2025).

≈ marks a conversion by molar mass, not a printed value. Entries after “also recorded” stand apart in the source; their conditions may differ.

Common to all, as to type: physicochemical
A short description of data set [1]: Thermodynamic aqueous solubility. As to conditions: thermodynamic from solid, water, 25° C. The method, then:
Aqueous solubility was determined by suspending sufficient compound in relevant media to give a maximum final concentration of ≥200 mg/ml of the parent freeform of the compound. The suspension was equilibrated at 25° C., on a Heidolph plate shaker set to 750 rpm for 24 hours. The pH of the saturated solution was then measured and the suspension filtered through a glass fibre C filter (particle retention 1.2 μm) and diluted appropriately. Quantitation was by HPLC with reference to a standard solution of approximately 0.15 mg/ml in DMSO. Different volumes of the standard, diluted and undiluted sample solutions were injected.
The solubility was calculated using the peak areas determined by integration of the peak found at the same retention time as the principal peak in the standard injection.
Analysis was performed on an Agilent HP1100 series system equipped with a diode array detector and using ChemStation software.

Data set [2] can be described thus: pH profiling solubility experiments. As to conditions: 25 °C, thermodynamic from solid. The protocol: Procedure: pH profiling solubility experiments were performed on MH1 and MH2. Solubility was determined in singlicate by suspending sufficient compound in relevant media (1.00 ml) to give a maximum final concentration as shown in the Table 17.
The suspensions were equilibrated at 25° C., on a Heidolph plate shaker set to 750 rpm for 24 hours. Samples were pH adjusted as required using 0.5M/1M HCl and 0.2M NaOH to within 0.1 of the desired pH unit (where possible). The pHs of the saturated solutions were measured (where applicable) and an appearance was recorded. The suspensions were filtered through a glass fibre C filter (particle retention […]) and diluted appropriately. Quantitation was by HPLC with reference to a standard solution of approximately 0.15 mg/ml in DMSO. Different volumes of the standard, diluted and undiluted sample solutions were injected. The solubility was calculated using the peak areas determined by integration of the peak found at the same retention time as the principal peak in the standard injection.

Data set [3] in a line: Solubility repeat at pH 1.2 (reverse addition). As to conditions: pH 1.2 buffered media, pH maintained at 1.2, reverse addition. The protocol: Procedure: pH 1.2 buffered media (0.4 ml) was added to two separate 7 ml vials. For each compound, material was added in portions to the pH 1.2 media. After each addition of compound, the vial was vortex mixed and the pH and appearance was recorded. The samples were adjusted to pH 1.2 with 1M HCl to within 0.05 of the desired pH unit. This was repeated until no further material was available (˜400 mg for each form, which would give a maximum concentration of around 1000 mg/ml if no adjustment was required).

Data set [4] in a line: Gravimetric Vapour Sorption (GVS). The protocol: Sorption isotherms were obtained using a SMS DVS Intrinsic moisture sorption analyzer, controlled by DVS Intrinsic Control software. The sample temperature was maintained at 25° C. by the instrument controls. The humidity was controlled by mixing streams of dry and wet nitrogen, with a total flow rate of 200 ml/min. The relative humidity was measured by a calibrated Rotronic probe (dynamic range of 1.0-100% RH), located near the sample. The weight change, (mass relaxation) of the sample as a function of % RH was constantly monitored by a microbalance (accuracy ±0.005 mg).
Typically, 5-30 mg of sample was placed in a tared mesh stainless steel basket under ambient conditions. The sample was loaded and unloaded at 40% RH and 25° C. (typical room conditions). A moisture sorption isotherm was performed as outlined below (2 scans per complete cycle). The standard isotherm was performed at 25° C. at 10% RH intervals over a 0-90% RH range. Typically, a double cycle (4 scans) was carried out. Data analysis was carried out within Microsoft Excel using the DVS Analysis Suite.
The sample was recovered after completion of the isotherm and re-analyzed by XRPD.

Data set [5] can be described thus: Drying investigation of the two hydrates (vacuum oven, XRPD and TGA). The method, then: Procedure: MH1 and MH2 were placed in a vacuum oven at 50° C. and RT for 24 h. The samples were then analysed by TGA and XRPD immediately after removal and after 4 hours standing under ambient conditions.
Data set [6] in a line: Variable temperature XRPD (VT XRPD). The method, then: For variable temperature (VT) experiments the samples were prepared and analysed in an Anton Paar chromed sample holder. A heating/cooling rate of 10° C./min was used with a 2 min isothermal hold before the measurement started. The measurement parameters are as per the standard screening data collection method (detailed above). Measurements were taken at the following temperatures: 25, 50, 75, 100, 160, and 25° C. The sample was then reanalyzed by XRPD after 1 h to check for complete rehydration.
MH1 was analysed at 25, 50, 75, 100, 160 and 25° C. (10° C./min heating rate and a 2 min wait before the measurement started) on the Empyrean. The sample was then reanalysed by XRPD after 10 and 20 min to check for rehydration.
(§1) Procedure: A second batch of MH2 material was prepared using the same procedure. This sample was then analysed by VTXRPD and by XRPD under vacuum.

Data set [7] is described as follows: XRPD under vacuum. The method, then:
For vacuum experiments the samples were prepared and analysed in an Anton Paar chromed sample holder. The measurement parameters are as per the standard screening data collection method (detailed above), at 25° C. with no vacuum (I2). A vacuum of around 50 mbar was then applied and the sample measured every 5 min until the anhydrate pattern was obtained for three consecutive measurements (to ensure complete dehydration, up to sample I8). The vacuum was then released and the sample analysed every 5 min for 6 measurements (until sample I22). The sample was then reanalyzed by XRPD after 1 h to check for complete rehydration.
MH1 was analysed at 25° C. with no vacuum. A vacuum of around 50 mbar was then applied and the sample measured every 5 min until the anhydrate pattern was obtained for three consecutive measurements (to ensure complete dehydration). The vacuum was then released and the sample analysed every 5 min for 6 measurements before the front of the sample stage was removed.
as §1

One may read the solubility (thermodynamic) as solubility found after equilibrating the solid with the medium. A word on the solubility: it is the concentration that dissolves in the medium under given conditions. A higher solubility goes with a readily soluble substance. Usually Solubility stands for the dissolved amount per volume that the medium holds. Low readings indicate little dissolved substance, high ones much dissolved substance. As to `C[C@@H]1CN(Cc2ncccn2)C[C@H]1c1cn2c(C3CCOCC3)ncc2c(=O)[nH]1` [MH2, 6-[(3S,4S)-4-methyl-1-(pyrimidin-2-ylmethyl)pyrrolidin-3-yl]-3-tetrahydropyran-4-yl-7H-imidazo[1,5-a]pyrazin-8-one], the solubility (thermodynamic) at 24 h in data set [1] amounted to 36.5 mg/mL (≈ 92.5 mM). The solubility at 24 h in data set [2] (pH 1.2 media, pH 1.2, simulated gastric fluid, media pH 1.2, 25° C., pH not maintained, final pH 5.02 (MH1-A), 6.63 (MH2-A)) was more than 275 mg/mL; in data set [2] (pH 4.0 media, pH 4, aqueous buffer, media pH 4.0, 25° C.), more than 99 mg/mL; in data set [2] (pH 6.5 media, pH 6.5, aqueous buffer, media pH 6.5, 25° C.), more than 147 mg/mL; in data set [2] (pH 7.5 media, pH 7.5, aqueous buffer, media pH 7.5, 25° C.), 58 mg/mL (≈ 147 mM). Besides, in data set [3], the “Solubility at pH 1.2” value is more than 161 mg/ml. The “GVS first sorption cycle uptake” value in data set [4] (40 to 90% RH, 25° C.) is “lack of uptake; also recorded: First sorption cycle from 40 to 90% RH, no uptake”. For the same molecule, the “XRPD post-GVS” value in data set [4] (solid form after GVS) is “rehydrated as MH1; also recorded: Crystalline - Matches MH1”. Besides, the “XRPD (T = 0, 50° C.)” value in data set [5] (vacuum oven 50° C. 24 h, immediately after removal) is “Matches MH1 and AH”. For the same molecule, the “TGA (T = 0, 50° C.)” value in data set [5] (vacuum oven 50° C. 24 h, immediately after removal, lost between 25 and 100° C.) was found to be 0.6% w/w lost between. In data set [5] (vacuum oven 50° C. 24 h, then 4 hours ambient, lost between 25 and 100° C.), the “TGA (T = 4 h, 50° C.)” value amounted to 1.9% w/w lost between. Further, in data set [5] (vacuum oven 50° C. 24 h, then 4 hours at ambient conditions), the “XRPD (T = 4 h, 50° C.)” value was “Matches MH1”. Also, the “XRPD (T = 0, RT)” value in data set [5] (vacuum oven RT 24 h, immediately after removal) was “Matches MH1 and AH”. For the same molecule, the “TGA (T = 0, RT)” value in data set [5] (vacuum oven RT 24 h, immediately after removal, lost between 25 and 100° C.) worked out at 0.2% w/w lost between. In addition, the “TGA (T = 4 h, RT)” value in data set [5] (vacuum oven RT 24 h, then 4 hours ambient, lost between 25 and 100° C.) stood at 1.9% w/w lost between. In addition, the “XRPD (T = 4 h, RT)” value in data set [5] (vacuum oven RT 24 h, then 4 hours at ambient conditions) is recorded as “Matches MH1”. For the same molecule, the “Form by VT XRPD upon heating” value in data set [6] (50° C.) is “mixture of MH2 and AH”; in data set [6] (75° C.), “complete conversion to AH”. Also, in data set [6] (re-cooled to 25° C.), the “Form by VT XRPD after cooling back” value was “completely transformed into MH1”. Moreover, in data set [7] (data collected for 55 minutes after release), the “Final XRPD pattern after vacuum released” value was “mixture of AH and MH1”. Further, the “Form by XRPD on reanalysis” value in data set [7] (reanalyzed after 1 h) is given as “complete rehydration to MH 1”. Besides, the “Time under vacuum to conversion to the anhydrate by XRPD” value in data set [7] (vacuum of around 50 mbar, 25° C.) is recorded as 5 min.
Turning to `C[C@@H]1CN(Cc2ncccn2)C[C@H]1c1cn2c(C3CCOCC3)ncc2c(=O)[nH]1` [anhydrate, 6-[(3S,4S)-4-methyl-1-(pyrimidin-2-ylmethyl)pyrrolidin-3-yl]-3-tetrahydropyran-4-yl-7H-imidazo[1,5-a]pyrazin-8-one], the “Conversion under ambient conditions” value in data set [6] (after VT XRPD, standing at 25° C.) is listed as “readily converts to MH1”; in data set [7] (after vacuum XRPD, ambient air), “readily converts to MH1”.
